Experimental data reported in PubChem BioAssay (NCI).
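Results reflect a 48-hour exposure of cells in 96-well plates to compound at five concentrations. TGI: concentration producing complete growth inhibition.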

Key:
Assay in all cases: NCI tumour cell line growth inhibition, 48 h
[1] = system: 786-0 renal
[2] = system: A498 renal
[3] = system: A549 NSCLC
[4] = system: ACHN renal
[5] = system: CAKI-1 renal
[6] = system: CCRF-CEM leukemia
[7] = system: COLO 205 colon
[8] = system: DLD-1 colon
[9] = system: DMS 114 small cell lung
[10] = system: DMS 273 small cell lung
[11] = system: HCC-2998 colon
[12] = system: HCT-116 colon
[13] = system: HCT-15 colon
[14] = system: HL-60(TB) leukemia
[15] = system: HOP-18 NSCLC
[16] = system: HOP-62 NSCLC
[17] = system: HOP-92 NSCLC
[18] = system: HT29 colon
[19] = system: IGROV1 ovarian
[20] = system: K-562 leukemia
[21] = system: KM12 colon
[22] = system: KM20L2 colon
[23] = system: LOX IMVI melanoma
[24] = system: LXFL 529 NSCLC
[25] = system: M14 melanoma
[26] = system: M19-MEL melanoma
[27] = system: MALME-3M melanoma
[28] = system: MOLT-4 leukemia
[29] = system: NCI-H460 lung
[30] = system: NCI-H522 lung
[31] = system: OVCAR-4 ovarian
[32] = system: OVCAR-5 ovarian
[33] = system: OVCAR-8 ovarian
[34] = system: RPMI-8226 leukemia
[35] = system: RXF 393 renal
[36] = system: RXF-631 renal
[37] = system: SF-268 CNS
[38] = system: SF-295 CNS
[39] = system: SF-539 CNS
[40] = system: SK-MEL-2 melanoma
[41] = system: SK-MEL-5 melanoma
[42] = system: SK-OV-3 ovarian
[43] = system: SN12C renal
[44] = system: SNB-19 CNS
[45] = system: SNB-75 CNS
[46] = system: SNB-78 CNS
[47] = system: SR leukemia
[48] = system: SW-620 colon
[49] = system: TK-10 renal
[50] = system: U251 CNS
[51] = system: UACC-257 melanoma
[52] = system: UACC-62 melanoma
[53] = system: UO-31 renal
[54] = system: EKVX NSCLC
[55] = system: NCI-H23 lung
[56] = system: OVCAR-3 ovarian
[57] = system: NCI-H226 lung
[58] = system: SK-MEL-28 melanoma
[59] = system: XF 498 CNS

C=C1CCC2C(C)(CO)C(O)CCC2(C)C1CC(O)/C(=C/CO)C(=O)O (stereo unspecified)
TGI [1]: > 100 µM
TGI [2]: > 100 µM
TGI [3]: > 100 µM
TGI [4]: > 100 µM
TGI [5]: > 100 µM
TGI [6]: > 100 µM
TGI [7]: > 100 µM
TGI [8]: > 100 µM
TGI [9]: > 100 µM
TGI [10]: > 100 µM
TGI [11]: > 100 µM
TGI [12]: > 100 µM
TGI [13]: > 100 µM
TGI [14]: > 100 µM
TGI [15]: > 100 µM
TGI [16]: > 100 µM
TGI [17]: > 100 µM
TGI [18]: > 100 µM
TGI [19]: > 100 µM
TGI [20]: > 100 µM
TGI [21]: > 100 µM
TGI [22]: > 100 µM
TGI [23]: > 100 µM
TGI [24]: > 100 µM
TGI [25]: > 100 µM
TGI [26]: > 100 µM
TGI [27]: > 100 µM
TGI [28]: > 100 µM
TGI [29]: > 100 µM
TGI [30]: > 100 µM
TGI [31]: > 100 µM
TGI [32]: > 100 µM
TGI [33]: > 100 µM
TGI [34]: > 100 µM
TGI [35]: > 100 µM
TGI [36]: > 100 µM
TGI [37]: > 100 µM
TGI [38]: > 100 µM
TGI [39]: > 100 µM
TGI [40]: > 100 µM
TGI [41]: > 100 µM
TGI [42]: > 100 µM
TGI [43]: > 100 µM
TGI [44]: > 100 µM
TGI [45]: > 100 µM
TGI [46]: > 100 µM
TGI [47]: > 100 µM
TGI [48]: > 100 µM
TGI [49]: > 100 µM
TGI [50]: > 100 µM
TGI [51]: > 100 µM
TGI [52]: > 100 µM
TGI [53]: > 100 µM

CC1CC2OC(=O)CC2C[C@@H]1O[Si](C)(C)C(C)(C)C (stereo partly specified)
TGI [1]: > 100 µM
TGI [3]: > 100 µM
TGI [4]: > 100 µM
TGI [5]: > 100 µM
TGI [6]: > 100 µM
TGI [7]: > 100 µM
TGI [8]: > 100 µM
TGI [9]: 89.4 µM
TGI [10]: > 100 µM
TGI [54]: > 100 µM
TGI [11]: > 100 µM
TGI [12]: > 100 µM
TGI [13]: > 100 µM
TGI [14]: 45.5 µM
TGI [15]: > 100 µM
TGI [16]: > 100 µM
TGI [17]: 34.7 µM
TGI [18]: > 100 µM
TGI [19]: > 100 µM
TGI [20]: > 100 µM
TGI [21]: > 100 µM
TGI [22]: > 100 µM
TGI [23]: > 100 µM
TGI [24]: > 100 µM
TGI [25]: > 100 µM
TGI [26]: > 100 µM
TGI [27]: > 100 µM
TGI [28]: 56.7 µM
TGI [55]: > 100 µM
TGI [29]: > 100 µM
TGI [56]: > 100 µM
TGI [31]: > 100 µM
TGI [32]: > 100 µM
TGI [33]: > 100 µM
TGI [34]: 51.8 µM
TGI [36]: > 100 µM
TGI [37]: > 100 µM
TGI [38]: > 100 µM
TGI [39]: > 100 µM
TGI [40]: > 100 µM
TGI [41]: 97.4 µM
TGI [42]: > 100 µM
TGI [43]: > 100 µM
TGI [44]: > 100 µM
TGI [45]: > 100 µM
TGI [46]: > 100 µM
TGI [48]: > 100 µM
TGI [49]: > 100 µM
TGI [51]: > 100 µM
TGI [52]: > 100 µM
TGI [53]: > 100 µM

N#CC(/C(CCCC(=O)Nc1cccc([N+](=O)[O-])c1)=N/NC(=O)c1cc2ccccc2cc1O)c1ccccc1 (stereo unspecified)
TGI [1]: 96.3 µM
TGI [2]: 92.8 µM
TGI [3]: > 100 µM
TGI [4]: > 100 µM
TGI [5]: > 100 µM
TGI [6]: 43.3 µM
TGI [7]: 46.9 µM
TGI [8]: > 100 µM
TGI [9]: 45.5 µM
TGI [54]: > 100 µM
TGI [11]: > 100 µM
TGI [12]: > 100 µM
TGI [13]: > 100 µM
TGI [14]: 48.7 µM
TGI [15]: > 100 µM
TGI [16]: > 100 µM
TGI [17]: 95.9 µM
TGI [18]: > 100 µM
TGI [19]: > 100 µM
TGI [20]: > 100 µM
TGI [21]: > 100 µM
TGI [22]: > 100 µM
TGI [23]: 49.4 µM
TGI [24]: > 100 µM
TGI [25]: 39.6 µM
TGI [26]: 34.9 µM
TGI [27]: > 100 µM
TGI [28]: > 100 µM
TGI [57]: > 100 µM
TGI [55]: 61.5 µM
TGI [29]: > 100 µM
TGI [30]: 56.9 µM
TGI [56]: > 100 µM
TGI [31]: > 100 µM
TGI [32]: > 100 µM
TGI [33]: > 100 µM
TGI [34]: > 100 µM
TGI [35]: 72.3 µM
TGI [36]: > 100 µM
TGI [37]: > 100 µM
TGI [38]: > 100 µM
TGI [39]: 72.5 µM
TGI [58]: > 100 µM
TGI [41]: 40.8 µM
TGI [42]: > 100 µM
TGI [43]: > 100 µM
TGI [44]: > 100 µM
TGI [45]: > 100 µM
TGI [47]: > 100 µM
TGI [48]: > 100 µM
TGI [49]: > 100 µM
TGI [50]: > 100 µM
TGI [51]: 98.5 µM
TGI [52]: 45 µM
TGI [53]: > 100 µM
TGI [59]: 63 µM

COc1cccc(/C=C2\CCC(CCN(C)C)(C3=CCCC3)C2=O)c1 (stereo unspecified)
TGI [1]: 27.9 µM
TGI [2]: 30.8 µM
TGI [3]: 32.6 µM
TGI [4]: 30.5 µM
TGI [5]: 25.2 µM
TGI [6]: 40.8 µM
TGI [7]: 21.3 µM
TGI [8]: 36.4 µM
TGI [9]: 31.4 µM
TGI [10]: 28 µM
TGI [11]: 30.4 µM
TGI [12]: 27.7 µM
TGI [13]: 31.1 µM
TGI [15]: 27.2 µM
TGI [16]: 32 µM
TGI [17]: 28.6 µM
TGI [18]: 29.2 µM
TGI [19]: 32.5 µM
TGI [20]: 36 µM
TGI [21]: 31 µM
TGI [23]: 30.2 µM
TGI [24]: 28.9 µM
TGI [25]: 27.4 µM
TGI [26]: 30 µM
TGI [27]: 31.2 µM
TGI [28]: 34.1 µM
TGI [57]: 31.2 µM
TGI [55]: 41.4 µM
TGI [29]: 29.9 µM
TGI [30]: 26.9 µM
TGI [56]: 34 µM
TGI [31]: 30.5 µM
TGI [32]: 28.1 µM
TGI [33]: 32.1 µM
TGI [34]: 41.7 µM
TGI [35]: 21.7 µM
TGI [36]: 43.4 µM
TGI [37]: 45.6 µM
TGI [38]: 31.1 µM
TGI [39]: 29.7 µM
TGI [40]: 29.9 µM
TGI [58]: 31.3 µM
TGI [41]: 32.4 µM
TGI [43]: 28.6 µM
TGI [44]: 31.1 µM
TGI [45]: 35 µM
TGI [47]: 57.4 µM
TGI [48]: 27.1 µM
TGI [49]: 29.3 µM
TGI [50]: 30.6 µM
TGI [51]: 28.8 µM
TGI [52]: 30 µM
TGI [53]: 26.5 µM
TGI [59]: 31.9 µM

[C-]#[N+][C@@H]1C2[C@H](CC[C@@]1(C)O)C(=C)CC[C@@H]2[C@@]1(C)CC[C@H](Cl)C(C)(C)O1 (stereo partly specified)
TGI [1]: 23.8 µM
TGI [2]: 41.7 µM
TGI [3]: 77.6 µM
TGI [4]: 33.2 µM
TGI [5]: 27.7 µM
TGI [6]: 21.8 µM
TGI [7]: 12.8 µM
TGI [8]: 50.8 µM
TGI [9]: 9.08 µM
TGI [54]: 60.2 µM
TGI [11]: 36.7 µM
TGI [12]: 12.8 µM
TGI [13]: 18 µM
TGI [14]: 5.66 µM
TGI [15]: 21.9 µM
TGI [18]: 29.8 µM
TGI [19]: 41.7 µM
TGI [20]: 13.5 µM
TGI [21]: 25 µM
TGI [22]: > 100 µM
TGI [23]: 16.8 µM
TGI [24]: > 100 µM
TGI [25]: 12.6 µM
TGI [26]: 21.9 µM
TGI [27]: 48.1 µM
TGI [57]: 20.8 µM
TGI [55]: 53.4 µM
TGI [29]: 52.6 µM
TGI [30]: 22.4 µM
TGI [56]: 9.97 µM
TGI [31]: 33.7 µM
TGI [33]: 21 µM
TGI [34]: 20.9 µM
TGI [35]: 35.4 µM
TGI [36]: > 100 µM
TGI [37]: > 100 µM
TGI [38]: 28.3 µM
TGI [39]: 39.4 µM
TGI [40]: 27.8 µM
TGI [58]: > 100 µM
TGI [41]: 15.7 µM
TGI [42]: 82.6 µM
TGI [43]: 26.3 µM
TGI [44]: > 100 µM
TGI [45]: > 100 µM
TGI [48]: 31.1 µM
TGI [49]: 84.2 µM
TGI [50]: 36.3 µM
TGI [51]: 45.4 µM
TGI [52]: 20.1 µM
TGI [53]: 7.17 µM
TGI [59]: 26.4 µM
